Results: patent EP0006772A1, “Thieno and furopyridone derivatives, process for their preparation and medicinal preparations containing them” (OMNIUM FINANCIER AQUITAINE POUR L'HYGIENE ET LA SANTE - …, priority 1978, dated 1980)

These compounds were tested on agrégation plaquettaire à l'A.D.P. (assay: ADP-induced platelet aggregation in plasma of orally treated rats (ex vivo)). Details: Rattus norvegicus, 100 mg/kg oral, 3 hours after treatment, versus control, 10 µM A.D.P., read-out: Pourcentage d'inhibition A.D.P.
Set-up: species or system rats de souche Wistar
Procedure: (§1) Chez des rats de souche Wistar, on effectue un prélèvement sanguin dans la veine jugulaire. A partir de ce sang citraté et après centrifugation, on reconstitue un plasma contenant 600 000 ± 20 000 plaquettes par mm^3, qui servira dans toutes les mesures d'agrégation.
(§2) On place 0,4 ml de plasma dans un tube siliconé pourvu d'une barre aimantée elle-même siliconée. Le tube est introduit dans un agrégomètre couplé à un appareil permettant d'enregistrer les variations de densité optique. Lorsque la transmission de la lumière a atteint une valeur stable, on introduit dans le tube 0,5 ml d'une solution contenant 10 µM d'A.D.P. (Adénosine-Di Phosphate).
(§3) L'agrégation des plaquettes provoque alors une augmentation de la transmission lumineuse suivie d'une diminution consécutive à la phase de désagrégation.
(§4) La variation maximale de densité optique ainsi déterminée caractérise l'intensité de l'agrégation.
(§5) Différents lots de 20 rats sont uiilisés, chaque lot recevant un dérivé à tester par la vcie orale, à la dose de 100 mg/kg de poids corporel. Les résultats obtenus au cours de ces 2 essais sont rapportés dans le Tableau I suivant qui indique le pourcentage d'inhibition de l'agrégation plaquettaire obtenu, par rapport au témoin, 3 heures après le traitement par le médicament de l'invention, dans le test de l'A.D.P. et au collagène.
In the case of `O=c1[nH]c(-c2ccccc2Cl)cc2ccsc12` [dérivé 16, o-chlorophényl-5 thiéno(2,3-c)pyridone-7], the inhibition at 100 mg/kg is reported as 60.1%. `COc1cc(-c2cc3sccc3c(=O)[nH]2)cc(OC)c1OC` [dérivé 8, (triméthoxy-3,4,5 phényl)-6 thiéno(3,2-c)py-ridone-4] showed an inhibition at 100 mg/kg of 60.4%. In the case of `COc1ccc(-c2cc3sccc3c(=O)[nH]2)cc1` [dérivé 6, p-méthoxyphényl-6 thiéno(3,2-c)pyridone-4], the inhibition at 100 mg/kg is reported as 62.2%. With `O=c1[nH]c(-c2cccnc2)cc2sccc12` [dérivé 14, (Pyridyl-3)-6 thiéno(3,2-c)pyridone-4] the inhibition at 100 mg/kg was 60.8%. `O=c1[nH]c(-c2ccccc2)cc2sc(Cl)cc12` [dérivé 12, Chloro-2 phényl-6 thiéno(3,2-c)pyridone-4] was tested, and the inhibition at 100 mg/kg was 60.6%.

Each compound was assayed on agrégation plaquettaire au collagène (assay: Collagen-induced platelet aggregation in plasma of orally treated rats (ex vivo)). Details: Rattus norvegicus, 100 mg/kg oral, 3 hours after treatment, versus control, collagen (bovine tendon extract), read-out: Pourcentage d'inhibition Collagène.
Set-up: species or system rats de souche Wistar
Procedure: as §1, §2, §3, §4
La solution d'A.D.P. est remplacée par une solution de collagène (extrait de tendons bovins).
as §5
Work on `O=c1[nH]c(-c2ccccc2Cl)cc2ccsc12` [dérivé 16, o-chlorophényl-5 thiéno(2,3-c)pyridone-7] yielded an inhibition at 100 mg/kg of 90.2%. For `COc1cc(-c2cc3sccc3c(=O)[nH]2)cc(OC)c1OC` [dérivé 8, (triméthoxy-3,4,5 phényl)-6 thiéno(3,2-c)py-ridone-4], the inhibition at 100 mg/kg was 92.2%. In the case of `COc1ccc(-c2cc3sccc3c(=O)[nH]2)cc1` [dérivé 6, p-méthoxyphényl-6 thiéno(3,2-c)pyridone-4], the inhibition at 100 mg/kg is reported as 91.7%. Compound `O=c1[nH]c(-c2cccnc2)cc2sccc12` [dérivé 14, (Pyridyl-3)-6 thiéno(3,2-c)pyridone-4] has an inhibition at 100 mg/kg of 91.2%. `O=c1[nH]c(-c2ccccc2)cc2sc(Cl)cc12` [dérivé 12, Chloro-2 phényl-6 thiéno(3,2-c)pyridone-4] was tested, and the inhibition at 100 mg/kg was 91.4%.

The compounds below were run on oedème localisé provoqué par la carragénine (assay: Carrageenan-induced localised paw oedema). Details: rat, 100 mg/kg oral (1 h before, at injection, 1 h and 2.5 h after), 1 h after carrageenan; read-out: pourcentage d'activité anti-inflammatoire Ière heure.
Type: in vivo
Procedure: Une solution de carragénine (0,1 ml) à 1 % est injectée dans les fléchisseurs métatarsiens de la patte postérieure droite du rat au temps O. Les animaux du lot traité reçoivent en outre, par la voie orale, 100 mg par kg du dérivé à tester respectivement 1 heure avant, en même temps que l'injection de l'agent phlogogène, puis 1 heure et 2 heures et demi après. Les mesures qui sont effectuées à l'aide du micromètre de ROCH aux temps 0, 1 heure, 2 heures, 3 heures et 5 heures après l'administration de la carragénine permettent de déterminer, en fonction du temps, le pourcentage d'activité anti-inflammatoire par comparaison avec le lot témoin.
`O=c1[nH]c(-c2ccccc2Cl)cc2ccsc12` [dérivé 16, o-chlorophényl-5 thiéno(2,3-c)pyridone-7] was tested, and the inhibition in vivo at 100 mg/kg was 37%. Work on `COc1cc(-c2cc3sccc3c(=O)[nH]2)cc(OC)c1OC` [dérivé 8, (triméthoxy-3,4,5 phényl)-6 thiéno(3,2-c)py-ridone-4] yielded an inhibition in vivo at 100 mg/kg of 36%. For `COc1ccc(-c2cc3sccc3c(=O)[nH]2)cc1` [dérivé 6, p-méthoxyphényl-6 thiéno(3,2-c)pyridone-4], the inhibition in vivo at 100 mg/kg was 40%. `O=c1[nH]c(-c2cccnc2)cc2sccc12` [dérivé 14, (Pyridyl-3)-6 thiéno(3,2-c)pyridone-4] showed an inhibition in vivo at 100 mg/kg of 38%. `O=c1[nH]c(-c2ccccc2)cc2sc(Cl)cc12` [dérivé 12, Chloro-2 phényl-6 thiéno(3,2-c)pyridone-4] was tested, and the inhibition in vivo at 100 mg/kg was 36%.

Same assay, conditions: rat, 100 mg/kg oral (1 h before, at injection, 1 h and 2.5 h after), 2 h after carrageenan; read-out: pourcentage d'activité anti-inflammatoire 2ème heure
In the case of `O=c1[nH]c(-c2ccccc2Cl)cc2ccsc12` [dérivé 16, o-chlorophényl-5 thiéno(2,3-c)pyridone-7], the inhibition in vivo at 100 mg/kg is reported as 41%. `COc1cc(-c2cc3sccc3c(=O)[nH]2)cc(OC)c1OC` [dérivé 8, (triméthoxy-3,4,5 phényl)-6 thiéno(3,2-c)py-ridone-4] gave an inhibition in vivo at 100 mg/kg of 39%. In the case of `COc1ccc(-c2cc3sccc3c(=O)[nH]2)cc1` [dérivé 6, p-méthoxyphényl-6 thiéno(3,2-c)pyridone-4], the inhibition in vivo at 100 mg/kg is reported as 43%. For `O=c1[nH]c(-c2cccnc2)cc2sccc12` [dérivé 14, (Pyridyl-3)-6 thiéno(3,2-c)pyridone-4], the inhibition in vivo at 100 mg/kg was 41%. `O=c1[nH]c(-c2ccccc2)cc2sc(Cl)cc12` [dérivé 12, Chloro-2 phényl-6 thiéno(3,2-c)pyridone-4] gave an inhibition in vivo at 100 mg/kg of 40%.

Same assay, conditions: rat, 100 mg/kg oral (1 h before, at injection, 1 h and 2.5 h after), 3 h after carrageenan; read-out: pourcentage d'activité anti-inflammatoire 3ème heure
Work on `O=c1[nH]c(-c2ccccc2Cl)cc2ccsc12` [dérivé 16, o-chlorophényl-5 thiéno(2,3-c)pyridone-7] yielded an inhibition in vivo at 100 mg/kg of 47%. `COc1cc(-c2cc3sccc3c(=O)[nH]2)cc(OC)c1OC` [dérivé 8, (triméthoxy-3,4,5 phényl)-6 thiéno(3,2-c)py-ridone-4] showed an inhibition in vivo at 100 mg/kg of 45%. For `COc1ccc(-c2cc3sccc3c(=O)[nH]2)cc1` [dérivé 6, p-méthoxyphényl-6 thiéno(3,2-c)pyridone-4], the inhibition in vivo at 100 mg/kg was 49%. `O=c1[nH]c(-c2cccnc2)cc2sccc12` [dérivé 14, (Pyridyl-3)-6 thiéno(3,2-c)pyridone-4] showed an inhibition in vivo at 100 mg/kg of 47%. `O=c1[nH]c(-c2ccccc2)cc2sc(Cl)cc12` [dérivé 12, Chloro-2 phényl-6 thiéno(3,2-c)pyridone-4] was tested, and the inhibition in vivo at 100 mg/kg was 46%.

Same assay, conditions: rat, 100 mg/kg oral (1 h before, at injection, 1 h and 2.5 h after), 5 h after carrageenan; read-out: pourcentage d'activité anti-inflammatoire 5ème heure
In the case of `O=c1[nH]c(-c2ccccc2Cl)cc2ccsc12` [dérivé 16, o-chlorophényl-5 thiéno(2,3-c)pyridone-7], the inhibition in vivo at 100 mg/kg is reported as 50%. Work on `COc1cc(-c2cc3sccc3c(=O)[nH]2)cc(OC)c1OC` [dérivé 8, (triméthoxy-3,4,5 phényl)-6 thiéno(3,2-c)py-ridone-4] yielded an inhibition in vivo at 100 mg/kg of 59%. For `COc1ccc(-c2cc3sccc3c(=O)[nH]2)cc1` [dérivé 6, p-méthoxyphényl-6 thiéno(3,2-c)pyridone-4], the inhibition in vivo at 100 mg/kg was 52%. `O=c1[nH]c(-c2cccnc2)cc2sccc12` [dérivé 14, (Pyridyl-3)-6 thiéno(3,2-c)pyridone-4] showed an inhibition in vivo at 100 mg/kg of 50%. In the case of `O=c1[nH]c(-c2ccccc2)cc2sc(Cl)cc12` [dérivé 12, Chloro-2 phényl-6 thiéno(3,2-c)pyridone-4], the inhibition in vivo at 100 mg/kg is reported as 50%.

The compounds below were run on oedème généralisé à l'ovalbumine (assay: Ovalbumin-induced generalised oedema). Details: po; rat, 100 mg/kg per os 1 h before and together with ovalbumin, 2 h after ovalbumin injection; read-out: Pourcentage d'activité anti-inflammatoire 2ème heure.
Type: in vivo
Procedure: Une injection intrapéritonéale simultanée de 1 ml d'ovalbumine et de 0,5 ml d'une solution aqueuse de bleu Evans à 1 % est effectuée sur le rat. D'autre part, on administre per os aux animaux du lot traité 100 mg/kg du dérivé à tester 1 heure avant et en même temps que l'ovalbumine. L'intensité du phénomène ainsi provoqué est notée par un chiffre allant de 1 à 5 suivant la progression du syndrome inflammatoire. On détermine ainsi la moyenne de l'intensité oedémateuse et le pourcentage de diminution de la réaction oedémateuse par rapport au témoin, en fonction du temps.
Les pourcentages d'activité anti-inflammatoire obtenus à la 2ème heure et 3ème heure après l'injection d'ovalbumine sont consignés dans le Tableau III suivant.
`O=c1[nH]c(-c2ccccc2Cl)cc2ccsc12` [dérivé 16, o-chlorophényl-5 thiéno(2,3-c)pyridone-7] was tested, and the inhibition in vivo at 100 mg/kg was 46%. `COc1cc(-c2cc3sccc3c(=O)[nH]2)cc(OC)c1OC` [dérivé 8, (triméthoxy-3,4,5 phényl)-6 thiéno(3,2-c)py-ridone-4] gave an inhibition in vivo at 100 mg/kg of 46%. Compound `COc1ccc(-c2cc3sccc3c(=O)[nH]2)cc1` [dérivé 6, p-méthoxyphényl-6 thiéno(3,2-c)pyridone-4] has an inhibition in vivo at 100 mg/kg of 52%. `O=c1[nH]c(-c2cccnc2)cc2sccc12` [dérivé 14, (Pyridyl-3)-6 thiéno(3,2-c)pyridone-4] gave an inhibition in vivo at 100 mg/kg of 48%. `O=c1[nH]c(-c2ccccc2)cc2sc(Cl)cc12` [dérivé 12, Chloro-2 phényl-6 thiéno(3,2-c)pyridone-4] was tested, and the inhibition in vivo at 100 mg/kg was 45%.

Same assay, conditions: po; rat, 100 mg/kg per os 1 h before and together with ovalbumin, 3 h after ovalbumin injection; read-out: Pourcentage d'activité anti-inflammatoire 3ème heure
`O=c1[nH]c(-c2ccccc2Cl)cc2ccsc12` [dérivé 16, o-chlorophényl-5 thiéno(2,3-c)pyridone-7] gave an inhibition in vivo at 100 mg/kg of 54%. `COc1cc(-c2cc3sccc3c(=O)[nH]2)cc(OC)c1OC` [dérivé 8, (triméthoxy-3,4,5 phényl)-6 thiéno(3,2-c)py-ridone-4] showed an inhibition in vivo at 100 mg/kg of 53%. `COc1ccc(-c2cc3sccc3c(=O)[nH]2)cc1` [dérivé 6, p-méthoxyphényl-6 thiéno(3,2-c)pyridone-4] was tested, and the inhibition in vivo at 100 mg/kg was 58%. With `O=c1[nH]c(-c2cccnc2)cc2sccc12` [dérivé 14, (Pyridyl-3)-6 thiéno(3,2-c)pyridone-4] the inhibition in vivo at 100 mg/kg was 54%. `O=c1[nH]c(-c2ccccc2)cc2sc(Cl)cc12` [dérivé 12, Chloro-2 phényl-6 thiéno(3,2-c)pyridone-4] showed an inhibition in vivo at 100 mg/kg of 52%.
